According to patent US20170215422A1, “NOVEL CYCLIC DEPSIPEPTIDE DERIVATIVES AND HARMFUL ORGANISM CONTROL AGENTS COMPRISING THE SAME” (priority 2012, published 2017):

Key:
Type in all cases: in vivo
[1] = test system: Musca domestica; assay: Control effect against Musca domestica adults (sucrose solution on swab); conditions: 50 ppm in 40% sucrose solution, 4 days
Protocol: A chemical solution of the compound according to the present invention that had been adjusted with a 40% sucrose solution to a concentration of 50 ppm was adsorbed on a swab, and the swab was placed in a vial. Two adults of Musca domestica grown in a room were released, followed by standing in a room at a room temperature of 25° C. […] When two insects were in a dead or anguished state, the test compound was determined to be effective.

[2] = test system: Haemaphysalis longicornis; assay: Tickicidal effect against Haemaphysalis longicornis (capsule on mouse); conditions: treatment of 9.5 μg on mouse body surface; nymphal ticks; 5 days
Protocol: A capsule having a diameter of 2 cm and a height of 2 cm was bonded to a surface of a back surface of a mouse. A compound of the present invention (9.5 μg) was dissolved in ethanol, and the solution was dropped on the surface of the body of the […] within the capsule. After thorough drying, ten nymphal ticks of Haemaphysalis longicornis were released, and the upper portion of the capsule was lidded for hermetical closing. The mouse was grown in a cage at 25° C. for 12 hr under light phase conditions. Five days after the release, the capsule was removed, and survival or death of the nymphal ticks and the number of blood sucked individuals were measured, and the death/anguish rate was calculated by the following equation.
Death/anguish rate (%)={number of dead/anguished insects/(number of survived ticks+number of dead/anguished insects)}×100

[3] = test system: larvae of Musca domestica; assay: Control effect against larvae of Musca domestica (treated feed); conditions: treatment of 12.5 ppm in feed; 5 days
Protocol: A compound of the present invention was applied to a very small amount of DMSO, followed by dissolution in deionized water to prepare a chemical solution. The chemical solution (2 mil) adjusted to a concentration of 12.5 ppm was added to and well mixed with 2 g of a powder prepared by mixing wheat bran, MF feed (ORIENTAL YEAST Co., Ltd.), and dry yeast at a wheat bran:MF feed:dry yeast of 25:5:1 to prepare a feed for larvae of Musca domestica. The feed containing the compound was lightly packed in a 3-ml vial, and eight eggs were released. The mouth of the vial was closed with a meshed lid, and the vial was left to stand at 25° C. The number of larvae was counted five days after the chemical treatment, and the death rate was calculated by the following equation. The test was carried out by replicating each treatment twice.
Death rate (%)={number of dead larvae/(number of survived larvae+number of dead larvae)}×100

Row | SMILES | insecticidal activity (two adults dead or anguished = effective) [1] | death/anguish rate [2] | death rate [3] [%]
1 | CCCCC[C@@H]1OC(=O)[C@H](C)N(C)C(=O)[C@@H](CCCCC)OC(=O)[C@H](C)N(C)C(=O)[C@@H](CCCCC)OC(=O)[C@H](CC(C)C)N(C)C(=O)[C@@H](CCCCC)OC(=O)[C@H](C)N(C)C1=O [Compound 27] | two insects were brought to a dead or anguished state | not less than 70% | –
2 | CCCCCC1OC(=O)C(CC(C)C)N(C)C(=O)C(CCCCC)OC(=O)C(CC(C)C)N(C)C(=O)C(CCCCC)OC(=O)C(CCC)N(C)C(=O)C(CCCCC)OC(=O)CN(C)C1=O (stereo not drawn) [Compound 57] | – | – | 100
